{"source": "patent US6608106B2", "about": "(Sloan-Kettering Institute for Cancer Research, priority 1997, dated 2003)", "key": {"[1]": {"details": "rat"}, "GLUT1 [2]": {"biological_target": "T1, GLUT1 (Homo sapiens, UniProt P11166)", "T1 sequence (P11166 1-492)": "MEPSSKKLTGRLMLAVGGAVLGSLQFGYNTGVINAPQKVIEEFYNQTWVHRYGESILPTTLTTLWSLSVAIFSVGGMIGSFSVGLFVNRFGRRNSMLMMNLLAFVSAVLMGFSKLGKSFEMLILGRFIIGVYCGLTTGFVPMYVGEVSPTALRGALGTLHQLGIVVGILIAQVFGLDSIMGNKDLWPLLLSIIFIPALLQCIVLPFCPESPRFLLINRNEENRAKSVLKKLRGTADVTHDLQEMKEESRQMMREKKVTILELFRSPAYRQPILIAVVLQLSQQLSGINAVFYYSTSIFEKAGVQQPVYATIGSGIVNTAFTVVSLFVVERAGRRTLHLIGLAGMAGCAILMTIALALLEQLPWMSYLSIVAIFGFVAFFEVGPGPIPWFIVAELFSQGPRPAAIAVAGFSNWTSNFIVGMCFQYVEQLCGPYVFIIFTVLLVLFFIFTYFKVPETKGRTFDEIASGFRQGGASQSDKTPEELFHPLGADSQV", "details": "in vitro data; cited from earlier work"}, "HL60 cells": {"tested_on": "HL60 cells", "details": "read-out: apparent Km for transport; cited from earlier work"}, "GLUT1 [3]": {"biological_target": "T2, GLUT1 (Mus musculus, UniProt P17809)", "T2 sequence (P17809 1-492)": "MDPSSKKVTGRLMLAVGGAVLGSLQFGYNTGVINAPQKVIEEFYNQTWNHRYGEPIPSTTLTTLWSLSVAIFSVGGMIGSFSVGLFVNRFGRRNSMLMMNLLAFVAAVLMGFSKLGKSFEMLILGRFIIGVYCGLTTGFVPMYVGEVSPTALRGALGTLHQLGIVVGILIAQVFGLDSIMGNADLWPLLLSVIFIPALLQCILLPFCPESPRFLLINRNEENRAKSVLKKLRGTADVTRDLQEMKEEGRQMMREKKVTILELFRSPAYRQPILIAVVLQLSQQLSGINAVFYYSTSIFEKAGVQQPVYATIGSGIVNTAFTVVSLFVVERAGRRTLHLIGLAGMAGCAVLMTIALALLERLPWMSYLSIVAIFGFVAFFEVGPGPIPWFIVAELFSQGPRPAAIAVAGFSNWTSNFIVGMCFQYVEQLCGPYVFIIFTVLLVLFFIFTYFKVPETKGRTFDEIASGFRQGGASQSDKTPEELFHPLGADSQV", "details": "dose-dependent, 30-second time course, mice"}, "[4]": {"tested_on": "murine stroke (right middle cerebral artery occlusion)", "assay": "Reperfused stroke: reversible (45 minutes) right middle cerebral artery occlusion", "format": "in vivo, C57/6J BL mice", "details": "for cerebral infarct volume (percentage of the ipsilateral hemisphere): 24 hours", "experimental": "(§1) Dithiothreitol (0.1 mmol/L) was then added separately to both DHA and ascorbate prior to use as a reducing agent. For experiments examining the effect of focal cerebal ischemia on the DHA's ability to: (1) cross the blood-brain barrier and, (2) protect cerebral tissue, we employed an intraluminal murine model of reversible (45 minutes) or permanent (24 h) right middle cerebral artery occlusion. (12) Anesthetized normothermic C57/6J BL mice were treated prior to ischemia via penile injection with either high dose DHA (250 mg/kg), low dose DHA (40 mg/kg), ascorbate (250 mg/kg), or sucrose (a non-metabolized, non-transportable marker of plasma volume). All animals underwent transcranial laser doppler measurement of cortical cerebral blood flow perioperatively. […] (11) In contrast, the experimental cohorts were followed for 24 hours and underwent pre-sacrifice neurological examination, as previously described. 13 Infarct volumes were calculated by digital analysis of serial, 2,3,5-triphenyltetrazolium-stained, sections, with volumes expressed as percentage of the ipsilateral hemisphere.^12 There were 67 animals in the reperfusion cohort (including vehicle, 40 mg/kg DHA, 250 mg/kg DHA, and 250 mg/kg ascorbate cohorts) and 54 animals in the nonreperfused cohort (including vehicle, 250 mg/kg DHA, and 250 mg/kg ascorbate cohorts). Comparisons were made between groups with a two-tailed Student t-test for unpaired variable. All studies were performed in accordance with an institutionally approved animal protocol."}, "[5]": {"details": "mouse, in vivo; for serum radioactivity concentration: 15 seconds"}, "[6]": {"assay": "Tracer studies of brain accumulation in focal cerebral ischemia", "format": "in vivo, C57/6J BL mice", "details": "ischemic animals, 10 minutes or two hours of focal ischemia", "experimental": "as §1"}, "[7]": {"details": "in vivo"}, "[8]": {"details": "60 mg daily, human volunteers; cited from earlier work"}, "[9]": {"tested_on": "murine stroke (right middle cerebral artery occlusion)", "assay": "Non-reperfused stroke: permanent (24 h) right middle cerebral artery occlusion", "format": "in vivo, C57/6J BL mice", "details": "250 mg/kg", "experimental": "as §1\nSince clinical therapeutic antioxidant strategies might be employed prior to hospitalization and reperfusion, we examined the effect of high-dose DHA on non-reperfused stroke as well. […] This improved perfusion was associated with similar reductions in infarct volume (51±6% vehicle, 46±6% AA, and 26±5% high-DHA, p<0.01 vs. vehicle), and sacrifice neurological deficit scores (3.0±0.3% vehicle, 3.2±0.4% AA, and 1.9±0.2% high-DHA; p<0.005 for DHA vs. either control). As in the setting of reperfusion, DHA reduced mortality by nearly 50% (50% vehicle, 64% AA, and 30% high-DHA."}, "[10]": {"details": "cited from earlier work"}, "[11]": {"details": "previous studies (11); cited from earlier work"}, "[12]": {"assay": "Carotid artery infusion of dehydroascorbic acid: loading of vitamin C into the brain", "format": "in vivo", "details": "24 mg into carotid artery over forty minutes, rat", "experimental": "An experiment was done in which the carotid artery of a subject rat was cannulated with a catheter and 24 mg of dehydroascorbic acid was injected into the artery. The injected dehydroascorbic acid was spiked with a tracer amount of radioactive (^14C-labeled) dehydroascorbic acid. The dehydroascorbic acid was infused over forty minutes and the brain was harvested. The amount of radioactive vitamin C was quantitated in the brain and total amount of injected vitamin C that accumulated in the brain was thus extrapolated. […] It is of note that the total vitamin C concentration in the normal adult rat brain is approximately 150 μg. A log-fold greater Vitamin C than baseline normal concentration of Vitamin C was thus achieved."}, "[13]": {"details": "low dose 40 mg/kg pre-treatment"}}, "note": "Read-outs that look alike come from different tables or passages of the source."}
{"molecule": "O=CC[C@@H](O)[C@H](O)[C@H](O)CO", "note": "[D-deoxyglucose, 2-Deoxy-D-glucose, reference compound]", "values": [{"measurement": "calculated BBB permeability-surface area product (PS)", "setting": "[1]", "value": "44±3.2", "unit": "μl/min/gm brain tissue"}, {"measurement": "concentration necessary to block the transport of dehydroascorbic acid through GLUT1", "setting": "GLUT1 [2]", "value": "greater than 50 mM"}, {"measurement": "Km", "setting": "HL60 cells", "value": 2500, "unit": "µM"}]}
{"molecule": "O=C[C@@H](O)[C@H](O)[C@@H](O)[C@@H](O)CO", "note": "[L-glucose]", "values": [{"measurement": "inhibition of uptake of dehydroascorbic acid in the brain", "setting": "GLUT1 [3]", "value": "no effect"}]}
{"molecule": "O=C1O[C@H]([C@@H](O)CO)C(O)=C1O", "note": "[ascorbic acid, L-[1-^14C]-ascorbic acid, reference compound]", "values": [{"measurement": "neurological deficit score", "setting": "[4]; 250 mg/kg pre-treatment", "value": "2.7±0.7"}, {"measurement": "overall mortality", "setting": "[4]; 250 mg/kg pre-treatment", "value": 50, "unit": "%"}, {"measurement": "post-ischemic cerebral perfusion", "setting": "[4]; 250 mg/kg pre-treatment", "value": "13±1", "unit": "%"}, {"measurement": "cerebral infarct volume (percentage of the ipsilateral hemisphere)", "setting": "[4]; 250 mg/kg pre-treatment", "value": "58±4", "unit": "%"}, {"measurement": "maximum brain accumulation", "setting": "[5]; Balb/c, iv", "value": 0.4, "unit": "% ID/gram brain tissue"}, {"measurement": "serum radioactivity concentration", "setting": "[5]; Balb/c, iv", "value": 27, "unit": "% ID/gram serum"}, {"measurement": "brain radioactivity", "setting": "[5]; Balb/c, iv, 2 hours", "value": 1.1, "unit": "% ID/gram brain tissue"}, {"measurement": "transport into the brain", "setting": "[5]", "value": "no measurable transport"}, {"measurement": "accumulation, percent of injected dose (TD) per gram of brain tissue", "setting": "[6]", "value": "only trace levels"}, {"measurement": "radioactivity found in the brain, percent of injected dose (ID) per gram of brain tissue", "setting": "[7]", "value": "only trace radioactivity"}, {"measurement": "steady-state plasma concentration", "setting": "[8]", "value": "approximately 24 μM"}, {"measurement": "infarct volume", "setting": "[9]", "value": "46±6", "unit": "%"}, {"measurement": "mortality", "setting": "[9]", "value": 64, "unit": "%"}, {"measurement": "pre-sacrifice regional cerebral cortical perfusion", "setting": "[9]", "value": "15±3", "unit": "%"}]}
{"molecule": "O=C1O[C@H]([C@@H](O)CO)C(=O)C1=O", "note": "[dehydroascorbic acid]", "values": [{"measurement": "neurological deficit score", "setting": "[4]; 250 mg/kg pre-treatment", "value": "1.9±0.2"}, {"measurement": "overall mortality", "setting": "[4]; 250 mg/kg pre-treatment", "value": 27, "unit": "%"}, {"measurement": "post-ischemic cerebral perfusion", "setting": "[4]; 250 mg/kg pre-treatment", "value": "40±4", "unit": "%"}, {"measurement": "cerebral infarct volume (percentage of the ipsilateral hemisphere)", "setting": "[4]; 250 mg/kg pre-treatment", "value": "12±4", "unit": "%"}, {"measurement": "neurological deficit score", "setting": "[4]; [13]", "value": "1.6±0.2"}, {"measurement": "overall mortality", "setting": "[4]; [13]", "value": 24, "unit": "%"}, {"measurement": "post-ischemic cerebral perfusion", "setting": "[4]; [13]", "value": "28±2", "unit": "%"}, {"measurement": "cerebral infarct volume (percentage of the ipsilateral hemisphere)", "setting": "[4]; [13]", "value": "22±4", "unit": "%"}, {"measurement": "stability", "setting": "[10]; aqueous solution", "value": "hydrolyses easily"}, {"measurement": "stability", "setting": "[10]; low pH conditions", "value": "stable"}, {"measurement": "calculated BBB permeability-surface area product (PS)", "setting": "[1]", "value": "136±12", "unit": "μl/min/gm brain tissue"}, {"measurement": "form of vitamin C accumulating in the brains of DHA-injected animals that is ascorbic acid", "setting": "[11]", "value": "> 85", "unit": "%"}, {"measurement": "brain radioactivity, maximum", "setting": "[5]; Balb/c, iv", "value": "4.3 % of ID/gram brain tissue"}, {"measurement": "serum radioactivity concentration", "setting": "[5]; Balb/c, iv", "value": 8, "unit": "% ID/gram serum"}, {"measurement": "brain radioactivity", "setting": "[5]; Balb/c, iv, 25 min", "value": 3.3, "unit": "%"}, {"measurement": "accumulation, percent of injected dose (TD) per gram of brain tissue", "setting": "[6]", "value": "~4", "unit": "%"}, {"measurement": "radioactivity found in the brain, percent of injected dose (ID) per gram of brain tissue", "setting": "[7]; Balb/c (mouse), Fischer F344 (rat), mouse and rat, 3 min", "value": "Approximately 4%"}, {"measurement": "infarct volume", "setting": "[9]", "value": "26±5", "unit": "%"}, {"measurement": "mortality", "setting": "[9]", "value": 30, "unit": "%"}, {"measurement": "pre-sacrifice regional cerebral cortical perfusion", "setting": "[9]", "value": "30±3", "unit": "%"}, {"measurement": "reduction of mortality", "setting": "[9]; vs. controls", "value": "~50", "unit": "%"}, {"measurement": "amount of vitamin C accumulated in the brain", "setting": "[12]", "value": 2.6, "unit": "mg"}, {"measurement": "vitamin C accumulated in the brain as share of injected dose", "setting": "[12]", "value": "approximately 11%"}, {"measurement": "Km", "setting": "HL60 cells", "value": 850, "unit": "µM"}]}
{"molecule": "CC(C)C[C@H](N)C(=O)O", "note": "[leucine]", "values": [{"measurement": "inhibition of uptake of dehydroascorbic acid in the brain", "setting": "GLUT1 [3]", "value": "no effect"}]}
{"molecule": "OC[C@H]1O[C@@](CO)(O[C@H]2O[C@H](CO)[C@@H](O)[C@H](O)[C@H]2O)[C@@H](O)[C@@H]1O", "note": "[sucrose, [fructose-1-^3H]-sucrose]", "values": [{"measurement": "maximum brain accumulation", "setting": "[5]; Balb/c, iv", "value": 0.4, "unit": "% ID/gram brain tissue"}, {"measurement": "brain radioactivity", "setting": "[5]; Balb/c, iv, 15 min", "value": "< 0.1", "unit": "%"}, {"measurement": "accumulation, percent of injected dose (TD) per gram of brain tissue", "setting": "[6]", "value": "only trace levels"}, {"measurement": "radioactivity found in the brain, percent of injected dose (ID) per gram of brain tissue", "setting": "[7]", "value": "only trace radioactivity"}]}
